Assay results published in ChEMBL document CHEMBL3044901, “Synthesis and insecticidal activity of N-oxydihydropyrroles: 4-hydroxy-3-mesityl-5,5-dimethyl derivatives with various substituents at the 1-position” (Biosci Biotechnol Biochem, 2002).

Key:
[1] = system: Cucumis sativus; assay: Phytotoxicity against Cucumis sativus (cucumber) exposed to compound spraying at […] measured 7 days post compound treatment by post-emergence glasshouse test; type: organism-based; details: in vivo, other, 168 h
[2] = system: Oryza sativa; assay: Phytotoxicity against Oryza sativa exposed to compound spraying at […] measured 7 days post compound treatment by post-emergence glasshouse test; type: organism-based; details: in vivo, other, 168 h
[3] = system: Myzus persicae; assay: Insecticidal activity against Myzus persicae (green peach aphid) infested Brassica campestris stems followed by leaf exposure to test compound spraying assessed as insect mortality at 1 ppm measured 5 days post compound treatment by contact exposure test; type: functional; details: 120 h
[4] = system: Nilaparvata lugens; assay: Insecticidal activity against Nilaparvata lugens (brown planthopper) third-instar larvae reared on rice seedlings assessed as insect mortality at 10 ppm measured 5 days post compound treatment by systemic exposure test; type: functional; details: 120 h
[5] = system: Myzus persicae; assay: Insecticidal activity against Myzus persicae (green peach aphid) infested Brassica campestris stems followed by leaf exposure to test compound spraying assessed as insect mortality at 10 ppm measured 5 days post compound treatment by contact exposure test; type: functional; details: 120 h
[6] = system: Myzus persicae; assay: Insecticidal activity against Myzus persicae (green peach aphid) infested Brassica campestris stems followed by cut stem exposure to test compound assessed as insect mortality at 0.1 ppm measured 5 days post compound treatment by systemic exposure test; type: functional; details: 120 h
[7] = system: Myzus persicae; assay: Insecticidal activity against Myzus persicae (green peach aphid) infested Brassica campestris stems followed by cut stem exposure to test compound assessed as insect mortality at 1 ppm measured 5 days post compound treatment by systemic exposure test; type: functional; details: 120 h
[8] = system: Nilaparvata lugens; assay: Insecticidal activity against Nilaparvata lugens (brown planthopper) third-instar larvae contacted with rice stems pre-exposed to compound assessed as insect mortality at 1 ppm measured 5 days post insect release by contact exposure test; type: functional; details: 120 h
[9] = system: Nilaparvata lugens; assay: Insecticidal activity against Nilaparvata lugens (brown planthopper) third-instar larvae contacted with rice stems pre-exposed to compound assessed as insect mortality at 10 ppm measured 5 days post insect release by contact exposure test; type: functional; details: 120 h
[10] = system: Nilaparvata lugens; assay: Insecticidal activity against Nilaparvata lugens (brown planthopper) third-instar larvae reared on rice seedlings assessed as insect mortality at 1 ppm measured 5 days post compound treatment by systemic exposure test; type: functional; details: 120 h

Row | SMILES | Phytotoxicity [1] [%] | Phytotoxicity [2] [%] | mortality at 1 ppm [3] [%] | mortality at 10 ppm [4] [%] | mortality at 10 ppm [5] [%] | mortality at 0.1 ppm [6] [%] | mortality at 1 ppm [7] [%] | mortality at 1 ppm [8] [%] | mortality at 10 ppm [9] [%] | mortality at 1 ppm [10] [%]
1 | Cc1cc(C)c(C2=C(OC(=O)CC(C)(C)C)C(C)(C)N(OCC#N)C2=O)c(C)c1 | 60 | 0 | 0 | 100 | 100 | 0 | 100 | 90 | 100 | 60
2 | CSCON1C(=O)C(c2c(C)cc(C)cc2C)=C(O)C1(C)C | 0 | 90 | 0 | 100 | 0 | 30 | 90 | 30 | 30 | 30
3 | Cc1cc(C)c(C2=C(OC(=O)CC(C)(C)C)C(C)(C)N(OC(=O)CC(C)(C)C)C2=O)c(C)c1 | 0 | 0 | 0 | – | 60 | 0 | 0 | 0 | – | 0
4 | COCON1C(=O)C(c2c(C)cc(C)cc2C)=C(OC(=O)CC(C)(C)C)C1(C)C | 90 | 100 | 100 | – | 100 | 100 | 100 | 30 | 100 | 30
5 | COCCON1C(=O)C(c2c(C)cc(C)cc2C)=C(O)C1(C)C | 60 | 90 | 0 | 90 | 90 | 100 | 100 | 30 | 90 | 90
6 | CC(=O)ON1C(=O)C(c2c(C)cc(C)cc2C)=C(OC(=O)CC(C)(C)C)C1(C)C | 0 | 60 | 0 | – | 0 | 0 | 0 | 60 | – | 30
7 | Cc1cc(C)c(C2=C(OC(=O)CC(C)(C)C)C(C)(C)N(OC(=O)N(C)C)C2=O)c(C)c1 | 0 | 0 | 0 | – | 0 | 0 | 0 | 0 | – | 30
8 | Cc1cc(C)c(C2=C(OC(=O)CC(C)(C)C)C(C)(C)N(O)C2=O)c(C)c1 | 0 | 30 | 0 | 90 | 0 | 0 | 0 | 90 | 100 | 60
9 | CCCON1C(=O)C(c2c(C)cc(C)cc2C)=C(O)C1(C)C | 0 | 100 | 0 | 100 | 30 | 90 | 90 | 30 | 100 | 60
10 | CON1C(=O)C(c2c(C)cc(C)cc2C)=C(O)C1(C)C | 60 | 100 | 0 | 100 | 60 | 0 | 100 | 30 | 90 | 100
11 | CON1C(=O)C(c2c(C)cc(C)cc2C)=C(OC(=O)CC(C)(C)C)C1(C)C | 60 | 30 | 0 | 90 | 30 | 0 | 0 | 90 | 90 | 30
12 | CCOCON1C(=O)C(c2c(C)cc(C)cc2C)=C(OC(=O)CC(C)(C)C)C1(C)C | 60 | 0 | 100 | 100 | 100 | 60 | 100 | 100 | 100 | 0
13 | CCON1C(=O)C(c2c(C)cc(C)cc2C)=C(O)C1(C)C | 0 | 100 | 0 | 90 | 0 | 60 | 100 | 60 | 100 | 60
14 | C=CCON1C(=O)C(c2c(C)cc(C)cc2C)=C(O)C1(C)C | 0 | 100 | 0 | 100 | 100 | 60 | 100 | 60 | 90 | 60
15 | C#CCON1C(=O)C(c2c(C)cc(C)cc2C)=C(O)C1(C)C | 0 | 100 | 0 | 90 | 90 | 60 | 100 | 60 | 100 | 90
16 | Cc1cc(C)c(C2=C(O)C(C)(C)N(OC(C)C)C2=O)c(C)c1 | 0 | 100 | 0 | 90 | 0 | 0 | 60 | 30 | 60 | 30
17 | Cc1cc(C)c(C2=C(O)C(C)(C)N(O)C2=O)c(C)c1 | 60 | 90 | 0 | – | 60 | 0 | 100 | 0 | 0 | 0
18 | COCCOCON1C(=O)C(c2c(C)cc(C)cc2C)=C(O)C1(C)C | 100 | 100 | 0 | 100 | 90 | 100 | 100 | 30 | 60 | 30
19 | Cc1cc(C)c(C2=C(OC(=O)CC(C)(C)C)C(C)(C)N(OC(=O)C(C)(C)C)C2=O)c(C)c1 | 0 | 0 | 0 | – | 0 | 0 | 0 | 0 | – | 30
20 | COC(=O)ON1C(=O)C(c2c(C)cc(C)cc2C)=C(OC(=O)CC(C)(C)C)C1(C)C | 0 | 60 | 0 | – | 0 | 0 | 0 | 60 | – | 30
21 | Cc1cc(C)c(C2=C(O)C(C)(C)N(OCc3ccccc3)C2=O)c(C)c1 | 0 | 30 | 0 | 100 | 0 | 0 | 0 | 30 | 0 | 30
22 | Cc1cc(C)c(C2=C(OC(=O)CC(C)(C)C)C(C)(C)N(OS(C)(=O)=O)C2=O)c(C)c1 | 0 | 0 | 0 | – | 0 | 0 | 0 | 0 | – | 0
23 | Cc1cc(C)c(C2=C(O)C(C)(C)N(OCC3CCCCC3)C2=O)c(C)c1 | 0 | 60 | 0 | 60 | 0 | 0 | 60 | 30 | 90 | 60
24 | COCON1C(=O)C(c2c(C)cc(C)cc2C)=C(O)C1(C)C | 90 | 100 | 0 | 100 | 100 | 100 | 100 | 60 | 100 | 60
